Assay results as given in patent US20240287122A1, “NOVEL GALACTOSIDE INHIBITOR OF GALECTINS” (GALECTO BIOTECH AB, priority 2020, published 2024).

What was measured:
Galectin-3 = Galectin-3 (Homo sapiens, UniProt P17931); test: Fluorescence anisotropy assay, affinity for galectin-3; assay type: binding; details: compound as inhibitor of the interaction between galectin and a fluorescein tagged saccharide probe
Description: (§1) The affinity of Example 1-43 for galectins were determined by a fluorescence anisotropy assay where the compound was used as an inhibitor of the interaction between galectin and a fluorescein tagged saccharide probe as described Sörme, P., Kahl-Knutsson, B., Huflejt, M., Nilsson, U. J., and Leffler H. (2004) Fluorescence polarization as an analytical tool to evaluate galectin-ligand interactions. Anal. Biochem. 334: 36-47, (Sörme et al., 2004) and Monovalent interactions of Galectin-1 By Salomonsson, Emma; Larumbe, Amaia; Tejler, Johan; Tullberg, Erik; Rydberg, Hanna; Sundin, Anders; Khabut, Areej; Frejd, Torbjomn; Lobsanov, Yuri D.; Rini, James M.; et al, From Biochemistry (2010), 49(44), 9518-9532, (Salomonsson et al., 2010).

Galectin-1 = Galectin-1 (Homo sapiens, UniProt P09382); test: Fluorescence anisotropy assay, affinity for galectin-1; assay type: binding; details: compound as inhibitor of the interaction between galectin and a fluorescein tagged saccharide probe
Chain of Galectin-1 (P09382 whole entry): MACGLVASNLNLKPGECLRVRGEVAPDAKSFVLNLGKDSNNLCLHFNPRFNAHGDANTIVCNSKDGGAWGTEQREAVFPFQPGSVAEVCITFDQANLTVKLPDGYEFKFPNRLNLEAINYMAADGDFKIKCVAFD
Description: as §1

Chain of Galectin-3 (P17931 whole entry): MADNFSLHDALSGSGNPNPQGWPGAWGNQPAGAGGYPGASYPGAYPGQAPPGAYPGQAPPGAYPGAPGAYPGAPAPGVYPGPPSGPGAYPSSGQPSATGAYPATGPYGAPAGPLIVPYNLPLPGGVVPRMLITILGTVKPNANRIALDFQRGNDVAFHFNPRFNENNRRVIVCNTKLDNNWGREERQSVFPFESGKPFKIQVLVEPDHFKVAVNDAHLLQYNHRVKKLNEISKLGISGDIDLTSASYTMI

Structure (SMILES) | Kd (Galectin-3) [nM] | Kd (Galectin-1) [nM]
COC1C(n2cc(-n3nccc3C)nn2)[C@@H](O)C(CO)O[C@@H]1Sc1cc(Br)cnc1C#N (stereo partly drawn) [Example 15, 5-Bromo-2-cyanopyridin-3-yl 3-deoxy-3-[4-(5-methyl-1H-1,2-pyrazol-1-yl)-1H-1,2,3-triazol-1-yl]-2-O-methyl-1-thio-α-D-galactopyranoside] | 4300 | 890
CCN(CC1CC1)C(=O)c1ncc(Br)cc1S[C@H]1OC(CO)[C@H](O)C(n2cc(-n3ccc(Cl)n3)nn2)C1OC (stereo partly drawn) [Example 21, 5-Bromo-2-[N,N-(cyclopropylmethyl)ethylcarbamoyl]pyridin-3-yl 3-[4-(3-chloro-1H-1,2-pyrazol-1-yl)-1H-1,2,3-triazol-1-yl]-3-deoxy-2-O-methyl-1-thio-α-D-galactopyranoside] | 100 | 100
COC1C(n2cc(-n3ccc(Cl)n3)nn2)[C@@H](O)C(CO)O[C@@H]1Sc1cc(Cl)cnc1C(F)(F)F (stereo partly drawn) [Example 6, 5-Chloro-2-(trifluoromethyl)pyridin-3-yl 3-[4-(3-chloro-1H-1,2-pyrazol-1-yl)-1H-1,2,3-triazol-1-yl]-3-deoxy-2-O-methyl-1-thio-α-D-galactopyranoside] | 270 | 200
COC1C(n2cc(-n3cc(F)cn3)nn2)[C@@H](O)C(CO)O[C@@H]1Sc1cc(Br)cnc1C#N (stereo partly drawn) [Example 13, 5-Bromo-2-cyanopyridin-3-yl 3-deoxy-3-[4-(4-fluoro-1H-1,2-pyrazol-1-yl)-1H-1,2,3-triazol-1-yl]-2-O-methyl-1-thio-α-D-galactopyranoside] | 1700 | 180
COC1C(n2cc(-n3ccc(Cl)n3)nn2)[C@@H](O)C(CO)O[C@@H]1Sc1cnc(C(F)(F)F)c(Cl)c1 (stereo partly drawn) [Example 8, 3-Chloro-2-(trifluoromethyl)pyridin-5-yl 3-[4-(3-chloro-1H-1,2-pyrazol-1-yl)-1H-1,2,3-triazol-1-yl]-3-deoxy-2-O-methyl-1-thio-α-D-galactopyranoside] | 540 | 360

Now from value to compound:

Kd (Galectin-3) [nM] | Kd (Galectin-1) [nM] | Structure (SMILES)
63 | 110 | COC1C(n2cc(-n3ccc(Cl)n3)nn2)[C@@H](O)C(CO)O[C@@H]1Sc1cc(Br)cnc1C(=O)N(CC(C)C)C(C)C (stereo partly drawn) [Example 32, 5-Bromo-2-(N,N-isobutylisopropylcarbamoyl)pyridin-3-yl 3-[4-(3-chloro-1H-1,2-pyrazol-1-yl)-1H-1,2,3-triazol-1-yl]-3-deoxy-2-O-methyl-1-thio-α-D-galactopyranoside]
75 | 140 | CCN(CC1CCC1)C(=O)c1ncc(Br)cc1S[C@H]1OC(CO)[C@H](O)C(n2cc(-n3ccc(Cl)n3)nn2)C1OC (stereo partly drawn) [Example 25, 5-Bromo-2-[N,N-(cyclobutylmethyl)ethylcarbamoyl}pyridin-3-yl 3-[4-(3-chloro-1H-1,2-pyrazol-1-yl)-1H-1,2,3-triazol-1-yl]-3-deoxy-2-O-methyl-1-thio-α-D-galactopyranoside]
110 | 160 | COC1C(n2cc(-n3ccc(Cl)n3)nn2)[C@@H](O)C(CO)O[C@@H]1Sc1cc(Br)cnc1C(=O)N(CC1CCC1)C(C)C (stereo partly drawn) [Example 26, 5-Bromo-2-[N,N-(cyclobutylmethyl)isopropylcarbamoyl]pyridin-3-yl 3-[4-(3-chloro-1H-1,2-pyrazol-1-yl)-1H-1,2,3-triazol-1-yl]-3-deoxy-2-O-methyl-1-thio-α-D-galactopyranoside]
76 | 98 | COC1C(n2cc(-n3ccc(Cl)n3)nn2)[C@@H](O)C(CO)O[C@@H]1Sc1cc(Br)cnc1C(=O)N(C)CC(C)(C)F (stereo partly drawn) [Example 22, 5-Bromo-2-[N,N-(2-fluoro-2-methylpropyl)methylcarbamoyl]pyridin-3-yl 3-[4-(3-chloro-1H-1,2-pyrazol-1-yl)-1H-1,2,3-triazol-1-yl]-3-deoxy-2-O-methyl-1-thio-α-D-galactopyranoside]
140 | 63 | CCNC(=O)c1ncc(Br)cc1S[C@H]1OC(CO)[C@H](O)[C@H](n2cc(-n3ccc(Cl)n3)nn2)C1OC (stereo partly drawn) [Example 35, 5-Bromo-2-(N-ethylcarbamoyl)pyridin-3-yl 3-[4-(3-chloro-1H-1,2-pyrazol-1-yl)-1H-1,2,3-triazol-1-yl]-3-deoxy-2-O-methyl-1-thio-α-D-galactopyranoside]
